Data taken from article PMC12304826, “Redirecting the Peptide Cleavage Causes Protease Inactivation” (Angewandte Chemie (International Ed. in English), 2025).

Assays:
[1] = target: T1, human cathepsin B (Homo sapiens, UniProt P07858); assay: Cathepsin B inhibition assay (chromogenic substrate Cbz-Arg-Arg-pNA); assay type: biochemical; details: for remaining activity at 20 µM: 20 µM inhibitor, duplicate measurements, product formation after 60 min, read-out: r.a. (%), residual enzymatic activity of cathepsin B; for kinact/KI: 1 h, pH 6, five inhibitor concentrations, duplicates, 60 min progress curves, 500 µM Cbz-Arg-Arg-pNA, pH 6.0, 37 °C, read-out: k inac/K i ± SE, second-order rate constant of enzyme inactivation, cathepsin B
T1 construct: purchased Calbiochem, Darmstadt, Germany
Method: To get a first insight into the interaction with human cathepsin B, the inhibition of the enzyme‐catalyzed cleavage of a chromogenic peptide substrate was examined. […] Active compounds were subjected to kinetic measurements at five different concentrations (Tables 1 and S1).
Figure 1 Cathepsin B‐catalyzed hydrolysis of 500 µM (= 0.45 K m) of Cbz‐Arg‐Arg‐p‐nitroanilide in the absence (black) or presence of increasing concentrations of carbamate 4 (from top to bottom: 0.4, 0.8, 1.2, 1.6, and 2.0 µM).
1. Enzyme Inhibition Assays and Kinetic Data of Inhibition of Cathepsins B, L, K and S General. Human cathepsins were assayed either fluorimetrically or spectrophotometrically as noted below. The 10 mM inhibitor solutions were prepared in DMSO. The final concentration of DMSO in all assays was 2%. Non-linear regressions were conducted with GraFit 5. Residual cathepsin activity at an inhibitor concentration of 20 µM was determined from duplicate measurements based on the product formation after 60 min. Concentration dependent measurements were performed in duplicate measurements with five different inhibitor concentrations when the residual cathepsin activity in the presence of 20 µM inhibitor was below 70% (cathepsin B) or below 50% (cathepsins cathepsins L, K, and S). Progress curves were monitored for 60 min. First-order rate constants, kobs, were determined by non-linear regression following the equation [P] = vi × (1 – exp(-kobs × t))/kobs + d, where [P] is the product concentration, vi is the initial product formation rate, kobs is the observed first-order rate constant, and d is the offset. Mean values of kobs were plotted versus corresponding inhibitor concentrations [I], and second-order rate constants of inactivation, kinac/Ki, were obtained by linear regression. The equation kobs/[I] = (kinac/Ki)/(1 + [S]/Km) was used, where [S] is the substrate concentration and Km is the Michaelis-Menten constant. Standard errors (SE) refer to the linear regression.
Cathepsin B inhibition assay.[1] Human isolated cathepsin B (Calbiochem, Darmstadt, Germany) was assayed spectrophotometrically on a Cary 50 or 100 Bio, Varian, at 405 nm. The reactions were followed at 37 °C. Assay buffer was 100 mM sodium phosphate buffer pH 6.0, 100 mM NaCl, 5 mM EDTA, 0.01% Brij 35. A stock solution of human cathepsin B of 1.81 mg/mL or 0.47 mg/mL in 20 mM sodium acetate buffer pH 5.0, 1 mM ethylenediaminetetraactic acid (EDTA) was diluted 1:500 with assay buffer containing 5 mM dithiothreitol (DTT) and incubated for 30 min at 37 °C. A 100 mM stock solution of the para-nitroaniline (pNA)-based chromogenic substrate Cbz-Arg-Arg-pNA was prepared in DMSO.
The final concentration of the substrate was 500 μM (= 0.45 Km). Into a cuvette containing 960 μL assay buffer, inhibitor solution and DMSO in a total volume of 15 μL, and 5 μL of the substrate solution were added and mixed. The reaction was initiated by adding 20 μL of the enzyme solution. […]

[2] = target: T2, human cathepsin S (Homo sapiens, UniProt P25774); assay: Cathepsin S inhibition assay (Cbz-Phe-Arg-AMC); assay type: biochemical; details: 20 µM inhibitor, 60 min; read-out: Residual activity @ 20 µM (%) Cat S
T2 construct: purchased Enzo Life Sciences, Lörrach, Germany
Method: 1. Enzyme Inhibition Assays and Kinetic Data of Inhibition of Cathepsins B, L, K and S General. Human cathepsins were assayed either fluorimetrically or spectrophotometrically as noted below. The 10 mM inhibitor solutions were prepared in DMSO. The final concentration of DMSO in all assays was 2%. Non-linear regressions were conducted with GraFit 5. Residual cathepsin activity at an inhibitor concentration of 20 µM was determined from duplicate measurements based on the product formation after 60 min. Concentration dependent measurements were performed in duplicate measurements with five different inhibitor concentrations when the residual cathepsin activity in the presence of 20 µM inhibitor was below 70% (cathepsin B) or below 50% (cathepsins cathepsins L, K, and S). Progress curves were monitored for 60 min. First-order rate constants, kobs, were determined by non-linear regression following the equation [P] = vi × (1 – exp(-kobs × t))/kobs + d, where [P] is the product concentration, vi is the initial product formation rate, kobs is the observed first-order rate constant, and d is the offset. Mean values of kobs were plotted versus corresponding inhibitor concentrations [I], and second-order rate constants of inactivation, kinac/Ki, were obtained by linear regression. The equation kobs/[I] = (kinac/Ki)/(1 + [S]/Km) was used, where [S] is the substrate concentration and Km is the Michaelis-Menten constant. Standard errors (SE) refer to the linear regression. […]
methyl-coumarin (AMC)-based fluorogenic substrate Cbz-Leu-Arg-AMC was prepared in DMSO. The final concentration of the substrate was 40 μM (= 13.3 Km). When using the spectrofluorometer, into a cuvette containing 960 μL assay buffer, inhibitor solution and DMSO in a total volume of 16 μL, and 4 […]
When using the plate reader, into a well containing 192 µL assay buffer, inhibitor solution and DMSO in a total volume of 3.2 µL and 0.8 µL of the substrate solution were added and mixed. The reaction was initiated by adding 4 µL of the cathepsin K solution.
Cathepsin S inhibition assay.[2] Human recombinant cathepsin S (Enzo Life Sciences, Lörrach, […]
nm and for emission 440 nm. The reactions were followed at 25 °C. Assay buffer was 100 mM sodium phosphate buffer pH 6.0, 100 mM NaCl, 5 mM EDTA, and 0.01% Brij 35. A stock solution of human cathepsin S of 70 μg/mL in 100 mM MES buffer, pH 6.5, 1 mM EDTA, 50 mM L-cysteine, 10 mM DTT, 0.5% Triton X-100 and 30% glycerol was diluted 1:100 with a 50 mM sodium phosphate buffer pH 6.5, 50 mM NaCl, 2 mM EDTA, 0.01% Triton X-100 and 5 mM DTT and incubated for 60 min at 37 °C. A 10 mM stock solution of the fluorogenic substrate Cbz-Phe-Arg-AMC was prepared in DMSO.
The assay was performed with a final substrate concentration of 40 µM (= 0.74 Km). When using the spectrofluorometer, into a cuvette containing 920 μL assay buffer, inhibitor solution and DMSO in a total volume of 16 μL, and 4 μL of the substrate solution were added and mixed. The reaction was initiated by adding 60 μL of the cathepsin S solution. When using the plate reader, into a well containing 188 µL assay buffer, inhibitor solution and DMSO in a total volume of 3.2 µL and 0.8 µL of the substrate solution were added and mixed. The reaction was initiated by adding […] of the cathepsin S solution.

T2 sequence (P25774 115-331): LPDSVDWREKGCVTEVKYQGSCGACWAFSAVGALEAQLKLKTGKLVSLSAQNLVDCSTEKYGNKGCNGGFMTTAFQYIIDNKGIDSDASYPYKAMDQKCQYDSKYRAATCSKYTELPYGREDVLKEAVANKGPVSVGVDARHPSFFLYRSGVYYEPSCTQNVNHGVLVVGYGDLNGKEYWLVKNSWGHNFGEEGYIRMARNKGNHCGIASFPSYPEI

SMILES	remaining activity at 20 µM [1] [%]	kinact/KI [1] [M⁻¹ s⁻¹]	remaining activity at 20 µM [2] [%]
CC(C)C[C@H](NC(=O)Oc1ccc(Cl)c(NC(=O)Cc2ccccc2)c1)C(=O)N1CCC[C@H]1C(=O)O [Compound 20]	≤ 2	2860 ± 50	93
CC(C)CC(NC(=O)Oc1ccccc1)C(=O)NC(Cc1ccccc1)C(=O)O (stereo not drawn) [Compound 1]	23	157 ± 13	97
CC(C)CC(NC(=O)Oc1ccc(NC(=O)C(c2ccccc2)c2ccccc2)c(Cl)c1)C(=O)N1CCCC1C(=O)O (stereo not drawn) [Compound 28]	≤ 2	8180 ± 290	58
